“Also recorded” adds a separate entry of the source.
Key:
[1] = tested on: U87-bearing rat brain; assay: In vivo ^23Na-MRSI line broadening in glioma models; details: glioma models, after agent infusion
Text: FIGS. 10C-10F illustrates images according to certain embodiments of the disclosure. […] However, the ^23Na linewidth analysis by TmDOTP^5− is confounded by its high ^23Na shiftability. This peak separation in vivo overestimates the full-width at half-maximum (FWHM) calculations and exaggerates the measured ^23Na linewidths.
Slice 1 is most superficial, and slice 3 is the deepest. The tumor outline is depicted in white in all columns.
This establishes GdDOTP^5−-induced ^23Na linewidth broadening as a potential surrogate marker for the altered Na^+ biodistribution within tumors. Thus, in brain tumor models, TmDOTP^5− with ^23Na-NMR can separate Na^+ in intracellular, blood, and interstitial pools, while GdDOTP^5− can distinguish Na^+ within intracellular and extracellular (i.e., blood and interstitial) pools.
Because the majority of the present studies looked at ^23Na chemical shift, the line broadening capabilities of these paramagnetic agents were also interrogated. […] This is due to the high magnetic moment of Gd^3+ which contributes to some degree of anisotropy to the paramagnetic susceptibility. […] Crucially, this family of paramagnetic agents has allowed to insightful probing of the tumor microenvironment and drawing of significant conclusions about tumor aggressiveness based on spectroscopic analysis.

[2] = Comparison of ^23Na shiftability and broadening potential of DOTP agents; format: physicochemical
[3] = tested on: rat brain bearing U251, RG2 or U87 tumors; assay: In vivo ^23Na-MRSI peak separation in tumor-bearing rat brain
Text: Before TmDOTP^5− delivery, there was a single ^23Na peak at 0 ppm corresponding to Na^+T, observed ubiquitously both inside and outside the tumor. Upon TmDOTP^5− delivery, compartmental ^23Na peak separation was achieved. Within the tumor, the compromised BBB permitted greater TmDOTP^5− extravasation and accumulation in the interstitial space, explicitly yielding three separate ^23Na peaks emerging from the original single ^23Na resonance. […] In the tumor, the most-shifted peak was Na^+b because the blood compartment had the largest TmDOTP^5−, which was corroborated by removing blood samples from the animal and observing the same chemical shift in vitro (FIG. 2D). In the tumor, the intermediate peak in the middle corresponded to the interstitial Na^+e resonance (FIG. 2B). The splitting was also evident outside of the tumor (i.e., in healthy tissue) where TmDOTP^5− extravasated to a much lesser extent compared to tumor tissue (FIG. 2C). The Na^+b peak was still most-shifted, whereas the Na^+i and Na^+e peaks were less discernible. When there was significant overlap between adjacent peaks, instead of peak integrals the peak amplitudes were used to discriminate signals. The shifted bulk Na^+e peak in healthy tissue confirmed that whatever degree of TmDOTP^5− extravasation occurred was sufficient to affect the interstitial ^23Na signals, albeit less pronounced than tumoral Na^+e. The unshifted Na^+i resonance was still at 0 ppm, but partially eclipsed by the bulk Na^+e peak. These same patterns inside/outside the tumor were observed throughout the brain.
The in vivo protocol was approved by the Institutional Animal Care & Use Committee of Yale University, and all procedures were performed in accordance with these enforced guidelines and regulations, and in compliance with the ARRIVE guidelines. Rats (athymic/nude and Fischer 344) were purchased through Yale University vendors. U251, U87 and RG2 GBM cell lines were purchased from American Type Culture Collections (Manassas, VA, USA). The U251, U87, and RG2 cells were cultured and grown in a 5% CO2 incubator at 37° C. in either low-glucose (U251 cells) or high-glucose (U87 and RG2 cells) Dulbecco's Modified Eagle's Medium (DMEM) (Thermo Fisher Scientific, Waltham, MA, USA) with 10% fetal bovine serum (FBS) and 1% penicillin-streptomycin. Cells for tumor inoculation were harvested upon reaching at least 80% confluence and were prepared in FBS-free DMEM. Athymic/nude rats were injected intracranially with 2-5×10^6 tumor cells either from the U251 (n=6) or the U87 (n=8) cell line (5-μL aliquot) while placed in a stereotactic holder on a heating pad. Fischer 344 rats were injected with 1.25×10^3 RG2 cells (n=8). During the procedure, animals were anesthetized via isoflurane (Isothesia) inhalation (3-4%), purchased from Covetrus (Portland, ME, USA). Dissection was performed to the cranium, and a hole was drilled into the skull to allow for stereotactic needle insertion. Injections were performed using a 10-μL Hamilton syringe with a 26G needle into the right striatum for majority of the experiments, 3 mm to the right of the bregma and 3 mm below the dura. The cells were injected steadily at 1 μL/min over 5 min and the needle was left in place for an additional 5 min post-injection. The syringe was then gradually removed to preclude any backflow of cells. The hole in the skull was sealed with bone wax, and the incision site was sutured after removal of the syringe. Animals were given bupivacaine (2 mg/kg at incision site) and carprofen (5 mg/kg, subcutaneously) during the tumor inoculation to relieve pain. Carprofen was subsequently given once per day for two days post-inoculation.
Rats were weighed daily and kept on a standard diet of rat chow and water. Tumor growth was monitored every 3-4 days using ^1H-MRI under isoflurane anesthesia. When the tumor had reached a minimum mean diameter of 3 mm at 20-24 days post-injection, each animal was imaged using ^1H-MRI and ^23Na-MRSI. […]

[4] = Bulk magnetic susceptibility (BMS) contribution to chemical shift in phantoms; format: physicochemical; details: phantoms parallel, perpendicular to B0 and spherical
Text: Upon translation of the present in vitro results to in vivo situations, certain confounding factors must be addressed. In the interstitial space, there are additional cations such as calcium (Ca^2+), magnesium (Mg^2+) and K^+ which will also bind to anionic contrast agents like TmDOTP^5−. However, physiologically their concentrations are low compared to Na^+. […] Additionally, there is a contribution to the chemical shift from bulk magnetic susceptibility (BMS) changes brought about by TmDOTP^5− in addition to the hyperfine shifts induced by interactions with Na^+. Experiments were performed on different DOTP^8− salts in phantoms parallel and perpendicular to the main magnetic field B0, and also spherical phantoms in which there was no BMS contribution. Only a small portion (˜2%) of the total chemical shift for TmDOTP^5− was due to BMS arising due to anisotropy of the paramagnetic susceptibility, and the remainder was the hyperfine shift.

[5] = doses presently being used for preclinical studies; cited from earlier work
[6] = cited from earlier work
[7] = intravenous ~1 μmol/g, all tumors
[8] = rats bearing RG2 and U87 tumors, tumor voxels

**Q.** Which “^23Na line broadening in tumor versus normal tissue” value [1] does the source give for `O=P([O-])([O-])CN1CCN(CP(=O)([O-])[O-])CCN(CP(=O)([O-])[O-])CCN(CP(=O)([O-])[O-])CC1.[Na+].[Na+].[Na+].[Na+].[Na+].[Tm+3]` [TmDOTP^5−, sodium thulium (III) 1,4,7,10-tetraazacyclododecane-1,4,7,10-tetrakis(methylenephosphonate)] here?
**A.** most prominent within the tumor; also recorded: substantial ^23Na line broadening within tumor models compared to normal tissue

**Q.** What about the “broadening potential (sensitivity of linewidth to agent concentration), words” value [2] of the same compound?
**A.** high broadening potentials

**Q.** What about the “shiftability (sensitivity of ^23Na chemical shift to agent concentration), words” value [2] of the same compound?
**A.** high shiftability

**Q.** And the “observed ^23Na linewidths in vivo” value ([3]; after TmDOTP^5−)?
**A.** ~0.4 ppm

**Q.** What about the “^23Na blood peak shift, in vitro analysis of blood samples” value ([3]; blood samples from the U251 tumor-bearing rat) of the same compound?
**A.** around 2 ppm

**Q.** What about the “TmDOTP^5− concentration in the tumor vasculature” value ([3]; from range of shifts observed and shiftability 2.77 ppm/mM) of the same compound?
**A.** no more than 0.7 mM

**Q.** What about the “separation of blood and interstitial ^23Na peaks” value ([3]; intravenous ~1 μmol/g) of the same compound?
**A.** ~1.5 ppm

**Q.** What about the “^23Na shift in blood” value [3, 7] of the same compound?
**A.** ~2 ppm

**Q.** And the “^23Na shifts in tumor tissue” value [3, 7]?
**A.** 0.5-1 ppm

**Q.** And the “^23Na shift of blood sodium (Na^+b) peak” value ([3]; rat bearing U251 tumor, after TmDOTP^5− delivery)?
**A.** around 2 ppm

**Q.** And the “^23Na shift of intracellular sodium (Na^+i) peak” value ([3]; rat bearing U251 tumor, ~1 μmol/g BW)?
**A.** 0 ppm

**Q.** And the “Na^+e shift in the tumor” value ([3]; rats bearing RG2 and U87 tumors)?
**A.** 0.5-1 ppm

**Q.** What about the “Na^+b shift” value [3, 8] of the same compound?
**A.** around 2 ppm

**Q.** And the “Na^+i shift” value [3, 8]?
**A.** 0 ppm

**Q.** And the “portion of the total chemical shift due to BMS” value [4]?
**A.** ~2%

**Q.** And the toxicity [5]?
**A.** non-toxic

**Q.** What about the “TmDOTP^5− in the cortex and subcortex” value ([6]; infusion protocol with probenecid, without renal ligation) of the same compound?
**A.** ~0.1 μmol TmDOTP^5−/g BW

**Q.** What about the “in vivo concentrations in blood and interstitial spaces” value ([6]; rat, in vivo) of the same compound?
**A.** 1 to 2 mM
